Test systems include T-47D breast; IGROV1 ovarian; OVCAR-5 ovarian; SR leukemia; SK-MEL-28 melanoma; MOLT-4 leukemia; SF-268 CNS; CAKI-1 renal; U251 CNS; HCT-15 colon; RPMI-8226 leukemia; SW-620 colon; PC-3 prostate; M14 melanoma.
Assay in all cases: growth of human tumour cells (NCI), 48 h

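A five-concentration, 48-hour dose response in 96-well plates underlies each endpoint, interpolated linearly between surrounding concentrations. TGI: total growth inhibition.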

Turning to `CCOC(=O)C(NC(C)=O)(Nc1ccc(F)cc1)C(F)(F)F` (centres undefined), the TGI was 81.5 µM in the experiment on T-47D breast; more than 100 µM in the experiment on IGROV1 ovarian; more than 100 µM in the experiment on OVCAR-5 ovarian; more than 100 µM in the experiment with SR leukemia; more than 100 µM in the experiment on SK-MEL-28 melanoma; more than 100 µM in the experiment with MOLT-4 leukemia. Also, the TGI in the experiment on SF-268 CNS, with CAKI-1 renal, in the experiment on U251 CNS, with HCT-15 colon, with RPMI-8226 leukemia and in the experiment with SW-620 colon was more than 100 µM throughout. In addition, the TGI in the experiment on PC-3 prostate and in the experiment on M14 melanoma was more than 100 µM throughout.

The record behind these values is PubChem BioAssay (NCI).
